Experimental data as given in US6849596B1, “Regulatory/unfolding peptides of ezrin” (priority 1999, dated 2005).

Experiments:
[1] = system: transplanted sarcoma of the uterus SM-322; test: Transplanted mouse sarcoma SM-322 model; type: in vivo, CBA mice; details: control 12-16
[2] = system: activated macrophages; test: Induction of activated macrophages in mice (peritoneal exsudate); type: in vivo
Description: Groups of three mice (CDAxC57B1)F1 weighing 22-24 g were injected abdominally with each peptide solution of 1.0 microgram of peptide dissolved in 0.5 ml of physiological saline. After 24 hours the animals were killed using neck vertebrae dislocation and 5 ml of Hanks solution was injected into the abdomen. The abdomen was massaged for 30 seconds and then the peritoneal liquid was collected. The collected liquid was filtered using a nylon filter into siliconised tubes containing 1.5 mg/ml EDTA. The number of nucleus containing cells in […] of filtrate were then assessed under microscopic examination using a Nihon hemocytometer. The cells were pelleted by centrifugation for 5 minutes at 800 g, the pellet was resuspended in fetal calf serum, the cell suspension was dropped on to a glass microscope slide and dried then fixed in methanol and stained with Romanovski's colouring agent. Morphological analysis of the cells of the peritoneal exsudate were performed using an Opton optical microscope at 1600 magnifications. The number of lymphocytes, resting macrophages, activated macrophages, granulocytes and other cell types were assessed.

[3] = system: transplanted cervical cancer CUC-5; test: Transplanted mouse cervical cancer model CUC-5; type: in vivo, CBA mice; details: for Percent decrease in tumour volume relative to control / Days of life expectancy: CUC-5; for Days of life expectancy: control 47-76
Text: Anticancer Activity of Hepreceptor Peptides on the Growth of Transplanted Sarcoma of the Uterus SM-322 and on Cancer of the Uterine Cervix CUS-5 Performed in CBA Mice Using Rupe312 and Rupe414 as Examples
Transplanted mouse cervical cancer model CUC-5 (epithelial tumour)
Primary tumours were induced in female mice using methylcholantrene. A few primary turnouts were then auto-transplanted into the uterine cervix. The life expectancy of mice with transplanted tumours was 43 days.
CBA female mice weighed 21.4=/−1.2 g. and were 2-3 months old. The tumours were introduced as a 0.5 ml of tumour suspension (1 g tumour per 10 ml of Igla medium) and ten mice used in each treatment group.
Lyophylised peptide were dissolved in sterile physiological saline immediately before use in three concentrations. 0.5 ml of solution was injected twice weekly into the peritoneum of the mice for the duration of the experiment. Three different concentrations of peptide were used leading to three final doses per injection per mouse of 10, 1.0 and 0.1 micrograms.
The average percent decrease of tumour volume relative to the control group was recorded at three time points. The longevity of the mice in the treatment groups and control groups was compared and the histology of the tumours between control and treatment groups was compared.

[4] = 0.1 Microg/mouse IP twice weekly
[5] = 10 Microg/mouse IP twice weekly

KKRRETVERE (Hepreceptor peptide) [Rupe312]
Days of life expectancy [1, 4]: 12 to 22 days
Days of life expectancy ([1]; 1 Microg/mouse IP twice weekly): 12 to 19 days
Days of life expectancy [1, 5]: 12 to 27 days
activity in increasing activated macrophages relative to HEP1 ([2]; 1.0 microgram peptide/mouse): significantly more active than HEP1
Activated macrophages as a percent of total number of cells ([2]; 1.0 microgram peptide/mouse injected abdominally, after 24 hours, saline 1.9): 13.9%
Percent decrease in tumour volume relative to control ([3]; 0.1 Microg/mouse IP twice weekly, Day 8): 50%
Percent decrease in tumour volume relative to control ([3]; 0.1 Microg/mouse IP twice weekly, Day 12): 18%
Percent decrease in tumour volume relative to control ([3]; 0.1 Microg/mouse IP twice weekly, Day 19): 45%
Days of life expectancy [3, 4]: 42 to 76 days
Percent decrease in tumour volume relative to control ([3]; 1 Microg/mouse IP twice weekly, Day 8): 50%
Percent decrease in tumour volume relative to control ([3]; 1 Microg/mouse IP twice weekly, Day 12): 26%
Percent decrease in tumour volume relative to control ([3]; 1 Microg/mouse IP twice weekly, Day 19): 49%
Days of life expectancy ([3]; 1 Microg/mouse IP twice weekly): 47 to 76 days
Percent decrease in tumour volume relative to control ([3]; 10 Microg/mouse IP twice weekly, Day 8): 50%
Percent decrease in tumour volume relative to control ([3]; 10 Microg/mouse IP twice weekly, Day 12): 25%
Percent decrease in tumour volume relative to control ([3]; 10 Microg/mouse IP twice weekly, Day 19): 49%
Days of life expectancy [3, 5]: 48 to 76 days
change in life expectancy ([3]; slower growing transplanted cervical cancer): no significant increase (or decrease) in life expectancy was detected
